The record followed here is patent US5912247A, “Quinazoline compound and anti-tumor agent containing said compound as an active ingredient” (Kanebo, Ltd., priority 1995, dated 1999).

One data set concerns Colon 26 solid tumor. As to the kind of experiment: Inhibitory activity of dye accumulation in the solid tumor tissue (inhibition of the tumor blood flow). It counts as in vivo, Male BALB/c mice. On the set-up: key to Inhibitory activity of dye accumulation into solid tumor: +: The average absorbance in the test group is significantly smaller than the average absorbance in the control group.; -: There is no significant difference in the average absorbance between the test group and the control group. As to conditions: for Inhibitory activity of dye accumulation into solid tumor: intravenous, Evans blue 1 hour after administration. The protocol: Inhibitory activity of dye accumulation in the solid tumor tissue (inhibition of the tumor blood flow): a) Materials: Test Animal: Male BALB/c mice (weighing 21-27 g, six mice per group) Tumor: Colon 26 solid tumor b) Test Method: Colon 26 solid tumor was cut in a size of about 1 mm square. The pieces of solid tumor were treated with a 0.25% collagenase solution and 0.02% deoxyribonuclease solution at 37° C. for 1.5 hour to give a cell suspension of colon 26 solid tumor cells. The cell suspension was adjusted to 3×10^6 cells/ml and the cell suspension (100 μl) was subcutaneously inoculated on the right back of male BALB/c mice. Ten days after the transplantation, the longitudinal size of the tumor was measured, and when the longitudinal size of the tumor reached about 10 mm, the mice were randomized. To the mice in test groups, the test compound was intravenously administered in an amount of 10 mg/kg or 1.25 mg/kg. The test compound was administered in the form of a solution in saline (in the test solution of Test Compound BF and BK, an equimolar amount of fumaric acid was further added, and in the test solution of Test Compound BN, an equimolar amount of hydrochloric acid was further added). To the mice in the control group, only saline was administered intravenously. One hour after the administration, 3% Evans blue-saline solution was injected intravenously via the tail vein of the mice in a volume of 0.1 ml per 10 g of the body weight of mouse, and 5 minutes later the mice were killed by luxation of the cervical vertebrae. After removing the tumor, the tumor was weighed. To extract Evans blue, the tumor was suspensed in 0.5% aqueous sodium sulfate (1.5 ml per 1 g of the tumor) and acetone (3.5 ml per 1 g of tumor), and then the tumor was cut into small pieces. After allowing to stand at room temperature overnight, the suspension were centrifuged at 3,000 rpm for 10 minutes to extract Evans blue, and the absorbance of the supernatant was read at 630 nm. […] (-): There is no significant difference in the average absorbance between the test group and the control group.

Data set [1] concerns St-4 solid tumor (human gastric cancer transplantable to nude mouse). As to the kind of experiment: Anti-tumor activity against human gastric cancer St-4 (solid tumor) transplanted to nude mouse. Type of data set: in vivo, human (in male BALB/cA JCI-nu nude mice). The source says:
Anti-tumor activity against human gastric cancer St-4 (solid tumor) transplanted to nude mouse: a) Materials: Test Animal: Male BALB/cA JCI-nu nude mice (six week old, six mice per group) Tumor: St-4 solid tumor (human gastric cancer transplantable to nude mouse) b) Test Method: St-4 solid tumor was cut to about 3 mm cubic, and the fragments were subcutaneously transplanted into the back at one side of the nude mice with a trockar. Ten days after the transplantation, the longitudinal size (L) and the size of the width direction (W) of the tumor were measured. The tumor weight was calculated by the formula: L×W×W/2, and when the weight of the tumor reached 100 mg to 300 mg, the mice were randomized. To the mice in test groups, the test compound was orally administered once a day for 40 days. The test compounds of this invention were administered in an amount of 30 mg/kg or 40 mg/kg in the form of a solution in distilled water, and No. 5666 was administered in an amount of 30 mg/kg or 100 mg/kg in the form of a suspension in 5% arabic gum solution. After the administration of the test compounds, the longitudinal size and the size in the width direction of the tumor were measured, and then the weight of tumor was calculated. The ratio of the tumor weight after treated with test compounds to the tumor weight before administration of test compounds (i.e. the relative tumor weight) was determined. As to the control group, the relative tumor weight was also determined likewise. The anti-tumor activity was evaluated in the same manner as described in Ann. Clin. Lab. Sci., 8 (1), 50 (1978). That is, the ratio of the relative tumor weight in the test group (T) to that in the control group (C) [T/C (%)] was calculated, and when the minimum of the ratio [Min.

The next data set is described as follows: Acute toxicity. As to conditions: mouse, in vivo, one week observation. The protocol:
Test Animal: Male ddY mice (5 week old, five mice per group)
To male ddY mice was administered a solution of a test compound in saline intravenously, or a solution of a test compound in distilled water orally. One week after the administration, the number of death of mice was counted, and the LD50 was calculated therefrom by a probit method.

A further data set in a line: Hemolytic activity. It counts as cell-based, Male Donryu rats. As to conditions: rat, red blood cells; 20 μg/ml, 37° C., 60 minutes; read-out: hemolytic ratio. The protocol:
(§1) Hemolytic activity: a) Materials: Test Animal: Male Donryu rats Test Compounds: The same as in Experiment 1 b) Test Method: Blood (about 6 ml or more) was collected from abdominal large vein of male Donryu rats, which was taken in a test tube containing dipotassium ethylenediamine tetraacetate (10 mg). The blood thus collected was divided into each 2 ml, which was centrifuged at 3,000 rpm for 5 minutes. After removing the supernatant, a 150 mM phosphate buffer (pH 7.4) (10 ml) was added thereto, and the mixture was mildly mixed. The mixture was centrifuged at 3,000 rpm for 5 minutes, followed by washing with the same phosphate buffer as above. This procedure was repeated twice. Finally, the same phosphate buffer was added thereto to prepare a test blood cell suspension. The test compound was dissolved in a saline solution in a concentration of 2 mg/ml in case of No. 5666, and of 20 mg/ml in case of the test compounds of this invention. […] Immediately after the incubation, the mixture was centrifuged at 3,000 rpm for 5 minutes, and the supernatant (each 200 μl) was added to a well of a 96 well microplate (an immunoassay plate with plane bottom), and the absorbance (OD: optical density) was read with a microplate reader (at a wavelength of 550 nm). […] The hemolytic rate was calculated by the following equation: [formula] […]

Data set [2] concerns test blood cell suspension. As to the kind of experiment: Hemolytic activity. Type of data set: cell-based, Male Donryu rats. As to conditions: 20 μg/ml. The method, then:
as §1

Each structure is given as a SMILES string. Where a name gives a salt, the structure may show the parent alone. Bounds are passed on as bounds.

As for `CC(=O)O.O[C@@H]1COC[C@H]1Oc1nc(N2CCNCC2)nc2ccccc12` [Compound AI, 4-[(3R,4R)-(4-Hydroxytetrahydrofuran-3-yl)oxy]-2-(1-piperazinyl)quinazoline monoacetate], the “Inhibitory activity of dye accumulation into solid tumor” value (“Inhibitory activity” for short) in the data set with Colon 26 solid tumor (1.25 mg/kg) is recorded as “+”. In addition, the “Inhibitory activity” value in the data set with Colon 26 solid tumor (10 mg/kg) is reported as “+”. Further, in data set [1] (40 mg/kg (po) (× 40 days)), the Evaluation result is “Effective (when the minimum of the ratio [Min. T/C (%)] was less than 42%, the test compound was evaluated as "effective")” and the “Min. T/C (%)” value was determined as 31.7%.
As usually defined, the LD50 is the dose at which mortality reaches 50%. As for `O[C@@H]1C[C@@H](Oc2nc(N3CCNCC3)nc3ccccc23)C[C@@H]1O` [Compound AM, 4-[(t-3,t-4-Dihydroxycyclopentan-r-1-yl)oxy]-2-(1-piperazinyl)quinazoline monohydrochloride], the “Inhibitory activity” value in the data set on Colon 26 solid tumor (1.25 mg/kg) and with Colon 26 solid tumor (10 mg/kg) was “+” in each case. In data set [1] (30 mg/kg (po) (× 40 days)), the Evaluation result was “Effective (when the minimum of the ratio [Min. T/C (%)] was less than 42%, the test compound was evaluated as "effective")”. For the same compound, in data set [1] (30 mg/kg (po) (× 40 days)), the “Min. T/C (%)” value stood at 36.1%. Besides, the LD50 at 168 h is 101 mg/kg in “Acute toxicity” (Intravenous injection) and > 500 mg/kg in “Acute toxicity” (Oral administration).
For `C[C@H](O)[C@@H](O)COc1nc(N2CCNCC2)nc2ccccc12.Cl` [Compound BG, 4-[(2S,3S)-(2,3-Dihydroxybutan-1-yl)oxy]-2-(1-piperazinyl)quinazoline monohydrochloride], the “Inhibitory activity” value with Colon 26 solid tumor (1.25 mg/kg) and with Colon 26 solid tumor (10 mg/kg) was “+” throughout.
With `C[C@@H](O)[C@H](O)COc1nc(N2CCNCC2)nc2ccccc12.Cl` [Compound BH, 4-[(2R,3R)-(2,3-Dihydroxybutan-1-yl)oxy]-2-(1-piperazinyl)quinazoline monohydrochloride], the “Inhibitory activity” value in the data set on Colon 26 solid tumor (1.25 mg/kg) and with Colon 26 solid tumor (10 mg/kg) was “+” throughout.
In the case of `Cl.OC[C@@H](O)CCOc1nc(N2CCNCC2)nc2ccccc12` [Compound BI, 4-[(3S)-(3,4-Dihydroxybutan-1-yl)oxy]-2-(1-piperazinyl)quinazoline monohydrochloride], the “Inhibitory activity” value in the data set on Colon 26 solid tumor (1.25 mg/kg) and with Colon 26 solid tumor (10 mg/kg) was “+” in each case.
`Cl.OC[C@H](O)CCOc1nc(N2CCNCC2)nc2ccccc12` [Compound BJ, 4-[(3R)-(3,4-Dihydroxybutan-1-yl)oxy]-2-(1-piperazinyl)quinazoline monohydrochloride]: the “Inhibitory activity” value in the data set with Colon 26 solid tumor (1.25 mg/kg) and with Colon 26 solid tumor (10 mg/kg) was “+” each time. Further, the Evaluation entry in data set [1] (30 mg/kg (po) (× 40 days)) was “Effective (when the minimum of the ratio [Min. T/C (%)] was less than 42%, the test compound was evaluated as "effective")”. Besides, in data set [1] (30 mg/kg (po) (× 40 days)), the “Min. T/C (%)” value is reported as 38.8%. Besides, the LD50 at 168 h in “Acute toxicity” (Intravenous injection) was 118 mg/kg; in the data set “Acute toxicity” (Oral administration) it was > 1000 mg/kg.
With `Cl.OC[C@H](O)[C@@H](O)COc1nc(N2CCNCC2)nc2ccccc12` [Compound BL, 4-[(2S,3S)-(2,3,4-Trihydroxybutan-1-yl)oxy]-2-(1-piperazinyl)quinazoline monohydrochloride], the “Inhibitory activity” value in the data set on Colon 26 solid tumor (1.25 mg/kg) and in the data set with Colon 26 solid tumor (10 mg/kg) was “+” each time.
For the compound `Cl.OC[C@@H](O)[C@H](O)COc1nc(N2CCNCC2)nc2ccccc12` [Compound BM, 4-[(2R,3R)-(2,3,4-Trihydroxybutan-1-yl)oxy]-2-(1-piperazinyl)quinazoline monohydrochloride], the “Inhibitory activity” value in the data set with Colon 26 solid tumor (1.25 mg/kg) and in the data set with Colon 26 solid tumor (10 mg/kg) was “+” throughout.
For `OC[C@@H](O)COc1nc(N2CCNCC2)nc2ccccc12` [Compound BN, 4-[(2R)-(2,3-Dihydroxypropan-1-yl)oxy]-2-(1-piperazinyl)quinazoline], the “Inhibitory activity” value with Colon 26 solid tumor (1.25 mg/kg) is given as “+”.
Turning to `C=CCN1CCN(c2nc(OCCCCC)c3ccccc3n2)CC1.O=C(O)/C=C/C(=O)O` [No. 5666, 2-(4-Allylpiperazin-1-yl)-4-[(1-pentyl)oxy]-quinazoline monofumarate, reference compound], the “Inhibitory activity” value in the data set on Colon 26 solid tumor (1.25 mg/kg) is on record as “-”; in the data set with Colon 26 solid tumor (10 mg/kg), “+”. In addition, the “inhibition of the flow of blood into tumor tissue / dye accumulation (in words)” value with Colon 26 solid tumor (mouse solid tumor (colon 26)) is “has such an inhibitory activity”. In addition, the Evaluation result in data set [1] (30 mg/kg (po) (× 40 days)) was “Non-effective”; in data set [1] (100 mg/kg (po) (× 40 days)) it was “Effective (when the minimum of the ratio [Min. T/C (%)] was less than 42%, the test compound was evaluated as "effective")”. In addition, the “Min. T/C (%)” value in data set [1] (30 mg/kg (po) (× 40 days)) is given as 59.7%; in data set [1] (100 mg/kg (po) (× 40 days)) it was 29.9%. In addition, the hemolysis at 1 h in the data set “Hemolytic activity” was 38%. Besides, the “hemolytic activity (in words)” value in data set [2] is “induced hemolytic activity”.
